The results in this text go back to patent US10576148B2, “Use of VAP-1 inhibitors for treating fibrotic conditions” (BIOTIE THERAPIES CORP., priority 2009, dated 2020).

One data set has as its system ApoE3 Leiden mice. As to the kind of experiment: cuff-induced neointimal thickening in femoral artery. The class given is in vivo, mouse. The following applies: for intima media ratio: vs control group; for lumen size (HPS stained vessel segments): vs control group A. The source says:
Neointimal and medial thickening is an early and essential stage in the development of atherosclerotic lesions and an essential component of restenosis. It is accompanied by fibrotic changes in the neointima and media of the vascular wall. This study evaluated the role of blocking SSAO in fibrotic disease by evaluating the effect of systemic delivery (by daily ip injection) of a small molecule SSAO inhibitor (mofegiline, BTT-2089) on cuff-induced neointimal thickening (cuff-induced stenosis) in the femoral artery of ApoE3 Leiden mice that received a moderate western type diet.
Methods: 40 male ApoE3*Leiden mice (age 12 weeks) were fed a mildly hypercholesterolemic diet for 3 weeks prior to surgical cuff placement. Treatment was daily ip injections with 1) vehicle; 2) dexamethasone in drinking water at 9 mg/I; 3) daily ip injections of BTT-2089 at 10 mg/kg; 4) BTT-2089 at 30 mg/kg, all started one day prior to surgery and continued during the experimental period. At day 0 surgery was performed, i.e. a non-constricting cuff (2-3 mm in length) was placed around both femoral arteries of the mice. 10 mice of each group were sacrificed after 2 weeks for histomorphometric analysis to quantify the inhibition of accelerated atherosclerotic lesions and neointima formation. […] This was reflected in the increased lumen size in examples of HPS stained vessel segments in SSAO inhibitor treated groups when compared to a control group (FIG. 12).
A second study, in the same model, was performed with another SSAO inhibitor from a chemical class distinct from BTT-2089. This hydrazine based inhibitor (BTT-2079) was dosed at a level of 10 mg/kg by daily i.p injection and compared with BTT-2089 at 30 mg/kg. In all other respects the study was performed in the same manner except that the dexamethasone control group was omitted. […] Vascular integrity was not affected.

In a further data set the test system is C57BL/6J mice. As to the kind of experiment: tobacco smoke induced mouse model of COPD, BAL cell counts. The class given is in vivo. The following applies: for reduction of total number of cells in BAL: 5 mg/kg orally once daily 11 days, 1 h prior to TS. The protocol:
C57BL/6J mice were exposed once daily to tobacco smoke (TS) for 11 consecutive days resulting in pulmonary inflammation 24 hours following the final TS exposure. After 11 days the response comprised of significant increases in macrophages, epithelial cells, eosinophils, neutrophils and lymphocytes.
Mice were randomly divided into study groups (n=10) and treated with a vehicle (5 ml/kg PBS pH 7.4+0.1% Polysorbate 80) or mouse monoclonal anti-VAP-1 antibody (3 mg/kg or 9 mg/kg BTT-1029 in the vehicle) intravenously on Days −1, 3, 6, and 9 at 4 h post TS exposure. Another group (n=10) received the vehicle intravenously and was exposed to air for an equivalent length of time. Two further groups of mice (n=10) received another vehicle (0.5% carboxymethylcellulose, sodium salt (CMC) in sterile water) or a reference compound (5 mg/kg Roflumilast in 0.5% CMC) orally once a day for 11 consecutive days at 1 h prior to each TS exposure. A final group (n=10) received the oral vehicle (0.5% CMC) and was exposed to air for an equivalent length of time.
All results were presented as individual data points for each animal and the mean value calculated for each group. Where tests for normality were positive the data initially was subjected to a one way analysis of variance test (ANOVA), followed by a Bonferroni correction for multiple comparisons in order to test for significance between treatment groups. A “p” value of ≤0.05 was considered to be statistically significant.
All data was also subjected to the Bartlets test for equal variances and for the majority of studies variances were generally equal, however as occurred in this study, occasionally some treatment groups would give a positive result. Non parametric analyses were therefore also used. As the data was normally distributed, parametric analyses (ANOVA) were quoted.
Percentage inhibitions were automatically calculated within the Excel spreadsheets for the cell data using the formula below: […]

[1] abbreviates: second study, 10 mg/kg i.p. daily.
The mark [2] stands for this setting: first study, 10 mg/kg ip daily, 2 weeks, vs NaCl 0.9% control.
The mark [3] stands for this setting: first study, 30 mg/kg ip daily, 2 weeks, vs NaCl 0.9% control.
The mark [4] stands for this setting: second study, 30 mg/kg i.p. daily.

As to `CN(N)[C@H](c1ccccc1)[C@@H](O)c1ccccc1` [BTT-2079, (1S,2R)-2-(1-methylhydrazino)-1,2-diphenylethanol], in the data set on ApoE3 Leiden mice (setting [1]), the lumen area result is “No significant changes”, the media area entry is “No significant changes”, the neointima formation entry is listed as “significant reduction” and the percentage lumen stenosis entry was “only significantly less in the BTT-2089 30 mg/kg group”. Besides, in the data set on ApoE3 Leiden mice (setting [1]), the vascular integrity result is recorded as “not affected”, the vessel wall diameter result was “No significant changes” and the intima media ratio result was “significantly less”.

As to `NC/C(=C/F)CCc1ccc(F)cc1` [BTT-2089, (E)-2-(4-fluorophenethyl)-3-fluoroallylamine], in the data set with ApoE3 Leiden mice (setting [2]), the media formation result is “significant reduction” and the neointima formation entry is “significant reduction”. In addition, the “lumen size (HPS stained vessel segments)” value with ApoE3 Leiden mice (first study, 10 mg/kg) is reported as “increased”. For the same compound, in the data set with ApoE3 Leiden mice (setting [3]), the media formation result is listed as “significant reduction” and the neointima formation result is “significant reduction”. Further, the “lumen size (HPS stained vessel segments)” value in the data set on ApoE3 Leiden mice (first study, 30 mg/kg) was “increased”. Further, in the data set with ApoE3 Leiden mice (setting [4]), the lumen area entry is “No significant changes”, the media area result is on record as “No significant changes”, the neointima formation entry is on record as “significant reduction” and the percentage lumen stenosis entry is listed as “significant reduction”. Also, in the data set on ApoE3 Leiden mice (setting [4]), the vascular integrity entry is given as “not affected”, the vessel wall diameter result is reported as “No significant changes” and the intima media ratio result is recorded as “significantly less”.

For `O=C(Nc1c(Cl)cncc1Cl)c1ccc(OC(F)F)c(OCC2CC2)c1` [Roflumilast], in the data set on C57BL/6J mice (5 mg/kg orally once daily), the “number of eosinophils in BAL” value is “did not significantly reduce”, the “number of macrophages in BAL” value is reported as “did not significantly reduce”, the “reduction of epithelial cells in BAL” value was found to be 51% and the “reduction of lymphocytes in BAL” value came out at 65%. The “reduction of neutrophils in BAL” value in the data set on C57BL/6J mice (5 mg/kg orally once daily) is listed as 63%. Besides, in the data set on C57BL/6J mice, the “reduction of total number of cells in BAL” value stood at 41%. Besides, in the data set with C57BL/6J mice (listed as roflumilast), the “reduction of total number of cells in BAL” value was “reduction”.
